Source: patent EP4741383A1, “COMPOUND AND USE THEREOF AS ANTI-CANCER DRUG” (Tyligand Bioscience (Shanghai) Limited, priority 2023, dated 2025)

Columns and labels:
Type in all cases: biochemical
Laforin = biological target: T1, Laforin (Homo sapiens, UniProt O95278); test: Tyrosine phosphatase selectivity (pNPP substrate), Laforin; conditions: for IC50: Laforin, pNPP substrate; for IC50PTP/IC50SHP2 Laforin: selectivity ratio Laforin over SHP2
T1 construct: made in house; host or cells: E. coli
T1 sequence (O95278 1-331): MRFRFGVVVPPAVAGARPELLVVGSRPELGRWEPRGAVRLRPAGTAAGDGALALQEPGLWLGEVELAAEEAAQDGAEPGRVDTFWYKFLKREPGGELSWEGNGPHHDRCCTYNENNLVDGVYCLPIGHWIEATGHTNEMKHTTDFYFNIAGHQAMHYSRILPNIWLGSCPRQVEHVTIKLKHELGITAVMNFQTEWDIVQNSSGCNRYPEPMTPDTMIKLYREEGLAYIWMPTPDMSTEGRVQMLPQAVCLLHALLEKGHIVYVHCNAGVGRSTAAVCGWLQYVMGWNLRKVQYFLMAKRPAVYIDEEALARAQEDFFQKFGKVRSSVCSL
Method: (§1) This experiment evaluated the selectivity of the disclosed compounds against tyrosine phosphatases, including SHP1, HePTP, Laforin, LMWPTP, LYP, PTP1B, PRL2, SSU72, VHR, FAP1, STEP, CDC14A, CD45, MEG2, and PP5, all expressed and purified from E. coli.
(§2) Phosphatase activity was measured using p-nitrophenyl phosphate (pNPP) (Fisher Scientific) as the substrate in 50 mM 3,3-dimethylglutaric acid buffer (pH 7.0, containing 1 mM EDTA), with ionic strength adjusted to 0.15 M with NaCl. […] After 10-60 minutes, the reaction was quenched by adding 20 µL of 5 N NaOH. Wells without enzyme were used as controls for correction. The amount of the product, p-nitrophenol, was determined by measuring the absorbance at 405 nm using a Spectra MAX340 microplate spectrophotometer (Molecular Devices), with a molar extinction coefficient of 18000 M^-1cm^-1.
(§3) Data were analyzed using GraphPad Prism software. Dose-response curves were obtained by fitting data using the nonlinear S-curve regression Dose-response-inhibition equation, and IC50 values were calculated.

HePTP = biological target: T2, HePTP (Homo sapiens, UniProt P35236); test: Tyrosine phosphatase selectivity (pNPP substrate), HePTP; conditions: for IC50: HePTP, pNPP substrate; for IC50PTP/IC50SHP2 HePTP: selectivity ratio HePTP over SHP2
T2 construct: made in house; host or cells: E. coli
T2 sequence (P35236 1-360): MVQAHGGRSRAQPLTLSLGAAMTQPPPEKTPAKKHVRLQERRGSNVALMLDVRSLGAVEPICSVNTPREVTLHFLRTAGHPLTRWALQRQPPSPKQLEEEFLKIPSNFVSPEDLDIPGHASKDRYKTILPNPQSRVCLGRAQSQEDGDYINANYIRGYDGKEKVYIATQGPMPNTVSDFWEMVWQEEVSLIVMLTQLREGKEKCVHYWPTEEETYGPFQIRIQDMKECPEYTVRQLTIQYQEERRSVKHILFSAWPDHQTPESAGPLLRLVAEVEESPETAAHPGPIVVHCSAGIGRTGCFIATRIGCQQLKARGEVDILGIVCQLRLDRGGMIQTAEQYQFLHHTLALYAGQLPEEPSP
Method: as §1, §2, §3

LMWPTP = biological target: T3, LMWPTP (Homo sapiens, UniProt P24666); test: Tyrosine phosphatase selectivity (pNPP substrate), LMWPTP; conditions: for IC50: LMPTP*, pNPP substrate; for IC50PTP/IC50SHP2 LMPTP*: selectivity ratio LMPTP* over SHP2
T3 construct: made in house; host or cells: E. coli
T3 sequence (P24666 1-158): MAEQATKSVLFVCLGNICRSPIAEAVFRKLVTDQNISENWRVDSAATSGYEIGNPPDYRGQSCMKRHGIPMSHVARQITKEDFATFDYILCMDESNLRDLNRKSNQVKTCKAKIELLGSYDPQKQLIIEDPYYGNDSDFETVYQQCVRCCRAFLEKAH
Method: as §1, §2, §3

MEG2 = biological target: T4, MEG2 (Homo sapiens, UniProt P43378); test: Tyrosine phosphatase selectivity (pNPP substrate), MEG2; conditions: for IC50: MEG2, pNPP substrate; for IC50PTP/IC50SHP2 MEG2: selectivity ratio MEG2 over SHP2
T4 construct: made in house; host or cells: E. coli
T4 sequence (P43378 1-593): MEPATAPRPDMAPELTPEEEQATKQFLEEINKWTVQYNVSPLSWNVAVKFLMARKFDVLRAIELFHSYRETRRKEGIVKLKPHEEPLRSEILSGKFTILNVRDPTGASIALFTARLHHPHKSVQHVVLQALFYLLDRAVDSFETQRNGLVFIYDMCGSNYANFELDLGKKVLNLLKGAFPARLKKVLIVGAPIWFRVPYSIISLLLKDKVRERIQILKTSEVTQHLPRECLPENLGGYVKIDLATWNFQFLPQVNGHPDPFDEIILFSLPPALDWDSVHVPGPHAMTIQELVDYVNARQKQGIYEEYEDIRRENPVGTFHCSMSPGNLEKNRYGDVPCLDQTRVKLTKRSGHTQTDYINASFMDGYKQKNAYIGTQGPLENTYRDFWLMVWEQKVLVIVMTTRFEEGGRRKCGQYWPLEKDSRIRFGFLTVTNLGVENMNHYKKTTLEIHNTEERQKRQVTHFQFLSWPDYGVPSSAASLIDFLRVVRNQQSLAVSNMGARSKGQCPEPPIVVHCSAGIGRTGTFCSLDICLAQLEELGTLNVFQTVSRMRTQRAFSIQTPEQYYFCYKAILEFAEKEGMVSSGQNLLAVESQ
Method: as §1, §2, §3

FAP1 [1] = biological target: T5, FAP1 (Homo sapiens, UniProt Q12923); test: Tyrosine phosphatase selectivity (pNPP substrate), FAP1; conditions: FAP1, pNPP substrate
T5 sequence (Q12923 2163-2477): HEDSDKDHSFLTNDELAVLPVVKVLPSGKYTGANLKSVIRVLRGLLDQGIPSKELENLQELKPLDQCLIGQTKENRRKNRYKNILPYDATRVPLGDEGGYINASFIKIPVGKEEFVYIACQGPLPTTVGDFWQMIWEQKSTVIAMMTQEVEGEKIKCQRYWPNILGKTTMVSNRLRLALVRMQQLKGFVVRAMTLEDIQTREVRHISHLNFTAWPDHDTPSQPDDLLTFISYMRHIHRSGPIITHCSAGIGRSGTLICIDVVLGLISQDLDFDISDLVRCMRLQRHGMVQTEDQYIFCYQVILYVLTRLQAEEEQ
Method: as §1, §2, §3

FAP1 [2] = test: as above; conditions: selectivity ratio FAP1 over SHP2
Method: as §1, §2, §3

| Compound | IC50 (Laforin) | IC50PTP/IC50SHP2 Laforin (Laforin) | IC50 (HePTP) | IC50PTP/IC50SHP2 HePTP (HePTP) | IC50 (LMWPTP) | IC50PTP/IC50SHP2 LMPTP* (LMWPTP) | IC50 (MEG2) | IC50PTP/IC50SHP2 MEG2 (MEG2) | IC50 (FAP1 [1]) | IC50PTP/IC50SHP2 FAP1 (FAP1 [2]) |
| --- | --- | --- | --- | --- | --- | --- | --- | --- | --- | --- |
| O=C(Nc1ccc(-c2cc3cc(F)c(-c4nnn[nH]4)cc3n2C2CCC2)cc1)C(=O)Nc1ccc(N2CCC3(CCOC3)CC2)cc1 [Example 67] | 6.21 µM | 182 | 0.95 µM | 27.9 | 1.37 µM | 40.2 | 1.77 µM | 52.0 | 2.34 µM | 68.8 |
| O=C(Nc1ccc(-c2oc3cc(F)c(-c4nnn[nH]4)cc3c2C2CCC2)cc1)C(=O)Nc1ccc(N2CCC3(CCOC3)CC2)cc1 [Example 125] | > 100 µM | 1960.8 | 35.9 µM | 703.9 | 2.24 µM | 43.9 | 8.54 µM | 167.5 | 7.44 µM | 145.9 |
| O=C(Nc1ccc(-c2cc3cc(F)c(-c4nnn[nH]4)cc3n2C2CCC2)cc1)C(=O)Nc1ccc(N2CCOCC2)cc1 [Example 47] | 0.61 µM | 9.6 | 0.8 µM | 12.6 | 1.09 µM | 17.3 | 0.99 µM | 15.7 | 1.53 µM | 24.2 |
| Cn1cc(-c2ccc(NC(=O)C(=O)Nc3ccc(-c4cc5cc(F)c(-c6nnc(C(F)(F)F)[nH]6)cc5n4C4CCC4)cc3)cc2)cn1 [Example 124] | > 100 µM | 139.7 | > 100 µM | 139.7 | > 20 µM | 27.9 | > 100 µM | 139.7 | > 100 µM | 139.7 |
| O=C(Nc1ccc(-c2ccsc2)cc1)C(=O)Nc1ccc(-c2cc3cc(F)c(-c4nnn[nH]4)nc3n2C2CCC2)cc1 [Example 132] | > 20 µM | 740.7 | 5.7 µM | 211.1 | > 20 µM | 740.7 | 15.1 µM | 559.3 | 13.5 µM | 500 |
| O=C(Nc1ccc(-c2ccsc2)cc1)C(=O)Nc1ccc(-c2cc3cnc(-c4nnn[nH]4)nc3n2C2CCC2)cc1 [Example 131] | > 20 µM | 769.2 | 6.1 µM | 234.6 | > 20 µM | 769.2 | 9.9 µM | 380.8 | 11 µM | 423.1 |
| Cn1cc(-c2ccc(NC(=O)C(=O)Nc3ccc(-c4cc5cc(F)c(-c6noc(=O)[nH]6)cc5n4C4CCC4)cc3)cc2)cn1 [Example 123] | > 100 µM | 709.2 | 1.33 µM | 9.4 | 2.48 µM | 17.6 | 2.41 µM | 17.1 | 7.3 µM | 51.8 |
| O=C(Nc1ccc(-c2cc3cc(F)c(-c4nnn[nH]4)cc3n2C2CCC2)cc1)C(=O)Nc1ccc(N2CC3COCC3C2)cc1 (stereo not drawn) [Example 114] | 2.44 µM | 33.8 | 1.06 µM | 14.7 | 2.13 µM | 29.5 | 1.66 µM | 23.0 | 1.9 µM | 26.3 |
| Cn1c(-c2cccc(NC(=O)C(=O)Nc3ccc(-c4ccsc4)cc3)c2)c(I)c2cc(C(=O)O)c(O)cc21 [Example 11a-1, reference compound] | 12.2 µM | 112 | 1.03 µM | 9.5 | 2.34 µM | 21.6 |  |  |  |  |
| O=C(Nc1ccc(-c2ccsc2)cc1)C(=O)Nc1ccc(-c2cc3ccc(-c4nnn[nH]4)nc3n2C2CCC2)cc1 [Example 129] | > 20 µM | 339.0 | > 20 µM | 339.0 | > 20 µM | 339.0 | 7.2 µM | 122.0 | 4.2 µM | 71.2 |
| O=C(Nc1ccc(-c2ccsc2)cc1)C(=O)Nc1ccc(-c2oc3cc(F)c(-c4nnn[nH]4)cc3c2C2CCC2)cc1 [Example 130] | > 20 µM | 800 | > 20 µM | 800 | > 20 µM | 800 | < 3 µM | 120 | < 3 µM | 120 |
| CC1(n2c(-c3ccc(NC(=O)C(=O)Nc4ccc(N5CCC6(CCOC6)CC5)cc4)cc3)cc3cc(F)c(-c4nnn[nH]4)cc32)CCC1 [Example 68] | > 25 µM | 520.8 | 1.17 µM | 29.3 | 0.37 µM | 7.7 | 0.89 µM | 18.5 | 0.56 µM | 11.7 |
| O=C(Nc1ccc(-c2ccsc2)cc1)C(=O)Nc1ccc(-c2cc3cc(F)c(-c4nnn[nH]4)cc3n2C2CCC2)cc1 [Example 4] | > 20 µM | 689.7 | 4.5 µM | 155.2 | > 20 µM | 689.7 | 22.1 µM | 762.1 | 19.5 µM | 672.4 |
